Measured values as given in publication PMC6142691, “Cannabidiol enhances morphine antinociception, diminishes NMDA-mediated seizures and reduces stroke damage via the sigma 1 receptor” (Molecular Brain, 2018).

Columns and labels:
sigma 1 receptor (σ1R) [1] = target: T1, sigma 1 receptor (σ1R) (Mus musculus, UniProt O55242); test: biochemical; parameters: gene Sigmar1
sigma 1 receptor (σ1R) [2] = target: T1, sigma 1 receptor (σ1R); test: in vitro pull-down: reversal of progesterone/CBD-induced disruption of recombinant σ1R-NR1 complex; format: biochemical; parameters: gene Sigmar1; murine full-length (1–223) σ1R, recombinant from E. coli, GST-free; with NMDAR NR1 subunit C-terminal region (residues 827–938)
sigma 1 receptor (σ1R) [3] = target: T1, sigma 1 receptor (σ1R); test: in vitro pull-down: disruption of recombinant σ1R-NR1 complex, immunoblot; format: binding; parameters: gene Sigmar1; murine full-length (1–223) σ1R, recombinant from E. coli, GST-free; with NMDAR NR1 subunit C-terminal region (residues 827–938)

T1 sequence (O55242 whole entry, the tested form may be a part): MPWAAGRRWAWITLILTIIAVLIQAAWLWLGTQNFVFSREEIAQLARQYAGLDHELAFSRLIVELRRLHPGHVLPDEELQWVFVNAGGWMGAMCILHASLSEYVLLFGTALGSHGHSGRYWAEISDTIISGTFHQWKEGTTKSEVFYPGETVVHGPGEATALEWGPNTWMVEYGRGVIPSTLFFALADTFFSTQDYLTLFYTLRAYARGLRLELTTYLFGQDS
T1 sequence (P35438 827-938 partner): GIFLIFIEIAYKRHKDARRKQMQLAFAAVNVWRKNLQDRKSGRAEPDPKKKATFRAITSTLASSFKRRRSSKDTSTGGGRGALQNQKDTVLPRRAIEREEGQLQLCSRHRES

SMILES | in vitro pull-down: reversal of progesterone/CBD-induced disruption of recombina (sigma 1 receptor (σ1R) [2]) | EC50 (sigma 1 receptor (σ1R) [3]) [nM] | other results
COC(=O)[C@]1(c2ccc(C)cc2)C[C@@H]1CN1CCC(O)(c2ccccc2)CC1 (racemic) [PPCC] | – | – | Ki (sigma 1 receptor (σ1R) [1]): 0.06 nM
O=C(NC1CCN(Cc2ccccc2)CC1)c1ccc(I)cc1 [4-IBP] | PPCC, PRE084 and 4-IBP did not alter σ1R-NR1 associations but reduced the capacity of progesterone and CBD | – | –
CN1CCN(CCc2ccc(Cl)c(Cl)c2)CC1 [BD1063] | – | ~0.03 | –
C=C(C)[C@@H]1CCC(C)=C[C@H]1c1c(O)cc(CCCCC)cc1O [CBD, Cannabidiol] | – | ~0.1 | –
O=C(OCCN1CCOCC1)C1(c2ccccc2)CCCCC1 [PRE084] | PPCC, PRE084 and 4-IBP did not alter σ1R-NR1 associations but reduced the capacity of progesterone and CBD | – | –
CC(=O)[C@H]1CC[C@H]2[C@@H]3CCC4=CC(=O)CC[C@]4(C)[C@H]3CC[C@]12C [Progesterone] | – | ~0.03 | –
